# Experimental data taken from PubChem BioAssay (NCI).
#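 How tested: cells in 96-well plates exposed to compound for 48 hours at five concentrations. TGI: total growth inhibition.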
# Key:
# Assay in all cases: NCI tumour cell line growth inhibition, 48 h
# A498 renal = system: A498 renal
# A549 NSCLC = system: A549 NSCLC
# CAKI-1 renal = system: CAKI-1 renal
# CCRF-CEM leukemia = system: CCRF-CEM leukemia
# COLO 205 colon = system: COLO 205 colon
# DLD-1 colon = system: DLD-1 colon
# DMS 114 small cell lung = system: DMS 114 small cell lung
# DMS 273 small cell lung = system: DMS 273 small cell lung
# EKVX NSCLC = system: EKVX NSCLC
# HCC-2998 colon = system: HCC-2998 colon
# HCT-116 colon = system: HCT-116 colon
# HCT-15 colon = system: HCT-15 colon
# HL-60(TB) leukemia = system: HL-60(TB) leukemia
# HOP-18 NSCLC = system: HOP-18 NSCLC
# HOP-62 NSCLC = system: HOP-62 NSCLC
# HOP-92 NSCLC = system: HOP-92 NSCLC
# HT29 colon = system: HT29 colon
# IGROV1 ovarian = system: IGROV1 ovarian
# K-562 leukemia = system: K-562 leukemia
# KM12 colon = system: KM12 colon
# KM20L2 colon = system: KM20L2 colon
# LOX IMVI melanoma = system: LOX IMVI melanoma
# M19-MEL melanoma = system: M19-MEL melanoma
# MALME-3M melanoma = system: MALME-3M melanoma
# MCF7 breast = system: MCF7 breast
# MOLT-4 leukemia = system: MOLT-4 leukemia
# NCI-H226 lung = system: NCI-H226 lung
# NCI-H23 lung = system: NCI-H23 lung
# NCI-H460 lung = system: NCI-H460 lung
# NCI-H522 lung = system: NCI-H522 lung
# NCI/ADR-RES ovarian = system: NCI/ADR-RES ovarian
# OVCAR-3 ovarian = system: OVCAR-3 ovarian
# OVCAR-4 ovarian = system: OVCAR-4 ovarian
# OVCAR-5 ovarian = system: OVCAR-5 ovarian
# OVCAR-8 ovarian = system: OVCAR-8 ovarian
# P388 leukemia = system: P388 leukemia
# P388/ADR leukemia = system: P388/ADR leukemia
# RPMI-8226 leukemia = system: RPMI-8226 leukemia
# RXF 393 renal = system: RXF 393 renal
# SF-268 CNS = system: SF-268 CNS
# SF-295 CNS = system: SF-295 CNS
# SF-539 CNS = system: SF-539 CNS
# SK-MEL-2 melanoma = system: SK-MEL-2 melanoma
# SK-MEL-28 melanoma = system: SK-MEL-28 melanoma
# SK-MEL-5 melanoma = system: SK-MEL-5 melanoma
# SK-OV-3 ovarian = system: SK-OV-3 ovarian
# SN12C renal = system: SN12C renal
# SN12K1 renal = system: SN12K1 renal
# SNB-19 CNS = system: SNB-19 CNS
# SNB-75 CNS = system: SNB-75 CNS
# SNB-78 CNS = system: SNB-78 CNS
# SW-620 colon = system: SW-620 colon
# U251 CNS = system: U251 CNS
# UACC-257 melanoma = system: UACC-257 melanoma
# UACC-62 melanoma = system: UACC-62 melanoma
# UO-31 renal = system: UO-31 renal
# XF 498 CNS = system: XF 498 CNS
smiles,measurement,setting,value
O=NN(CCCl)C(=O)Nc1ccc(Cl)c(Cl)c1,TGI,A498 renal,> 100 µM
same,TGI,A549 NSCLC,> 100 µM
same,TGI,CAKI-1 renal,> 100 µM
same,TGI,CCRF-CEM leukemia,> 100 µM
same,TGI,COLO 205 colon,> 100 µM
same,TGI,DLD-1 colon,> 100 µM
same,TGI,DMS 114 small cell lung,> 100 µM
same,TGI,DMS 273 small cell lung,> 100 µM
same,TGI,EKVX NSCLC,> 100 µM
same,TGI,HCC-2998 colon,> 100 µM
same,TGI,HCT-116 colon,> 100 µM
same,TGI,HCT-15 colon,> 100 µM
same,TGI,HL-60(TB) leukemia,> 100 µM
same,TGI,HOP-18 NSCLC,> 26.2 µM
same,TGI,HOP-62 NSCLC,> 100 µM
same,TGI,HOP-92 NSCLC,97.8 µM
same,TGI,HT29 colon,> 100 µM
same,TGI,IGROV1 ovarian,> 100 µM
same,TGI,K-562 leukemia,> 100 µM
same,TGI,KM12 colon,> 100 µM
same,TGI,KM20L2 colon,> 69.3 µM
same,TGI,LOX IMVI melanoma,> 100 µM
same,TGI,M19-MEL melanoma,> 100 µM
same,TGI,MALME-3M melanoma,> 100 µM
same,TGI,MCF7 breast,> 100 µM
same,TGI,MOLT-4 leukemia,> 100 µM
same,TGI,NCI-H226 lung,> 100 µM
same,TGI,NCI-H23 lung,> 100 µM
same,TGI,NCI-H460 lung,> 100 µM
same,TGI,NCI-H522 lung,> 89.5 µM
same,TGI,NCI/ADR-RES ovarian,> 100 µM
same,TGI,OVCAR-3 ovarian,> 100 µM
same,TGI,OVCAR-4 ovarian,> 100 µM
same,TGI,OVCAR-5 ovarian,> 100 µM
same,TGI,OVCAR-8 ovarian,> 100 µM
same,TGI,P388 leukemia,> 100 µM
same,TGI,P388/ADR leukemia,> 100 µM
same,TGI,RPMI-8226 leukemia,> 100 µM
same,TGI,RXF 393 renal,> 100 µM
same,TGI,SF-268 CNS,> 100 µM
same,TGI,SF-295 CNS,> 100 µM
same,TGI,SF-539 CNS,> 100 µM
same,TGI,SK-MEL-2 melanoma,> 100 µM
same,TGI,SK-MEL-28 melanoma,> 100 µM
same,TGI,SK-MEL-5 melanoma,> 100 µM
same,TGI,SK-OV-3 ovarian,> 100 µM
same,TGI,SN12C renal,> 100 µM
same,TGI,SN12K1 renal,> 100 µM
same,TGI,SNB-19 CNS,> 100 µM
same,TGI,SNB-75 CNS,> 100 µM
same,TGI,SNB-78 CNS,> 100 µM
same,TGI,SW-620 colon,> 100 µM
same,TGI,U251 CNS,> 100 µM
same,TGI,UACC-257 melanoma,> 100 µM
same,TGI,UACC-62 melanoma,> 100 µM
same,TGI,UO-31 renal,99.3 µM
same,TGI,XF 498 CNS,99.7 µM
